9 compounds from PMC8518382, “Identification of a Bromodomain‐like Region in 15‐Lipoxygenase‐1 Explains Its Nuclear Localization” (Angewandte Chemie (International Ed. in English), 2021) can be followed below.

SMILES strings stand for the structures. Where only a bound is given, the exact number is not on record here.

The target in test [1] is T1, 15-LOX-1 (Homo sapiens, UniProt P16050).
T1 sequence (P16050 1-662): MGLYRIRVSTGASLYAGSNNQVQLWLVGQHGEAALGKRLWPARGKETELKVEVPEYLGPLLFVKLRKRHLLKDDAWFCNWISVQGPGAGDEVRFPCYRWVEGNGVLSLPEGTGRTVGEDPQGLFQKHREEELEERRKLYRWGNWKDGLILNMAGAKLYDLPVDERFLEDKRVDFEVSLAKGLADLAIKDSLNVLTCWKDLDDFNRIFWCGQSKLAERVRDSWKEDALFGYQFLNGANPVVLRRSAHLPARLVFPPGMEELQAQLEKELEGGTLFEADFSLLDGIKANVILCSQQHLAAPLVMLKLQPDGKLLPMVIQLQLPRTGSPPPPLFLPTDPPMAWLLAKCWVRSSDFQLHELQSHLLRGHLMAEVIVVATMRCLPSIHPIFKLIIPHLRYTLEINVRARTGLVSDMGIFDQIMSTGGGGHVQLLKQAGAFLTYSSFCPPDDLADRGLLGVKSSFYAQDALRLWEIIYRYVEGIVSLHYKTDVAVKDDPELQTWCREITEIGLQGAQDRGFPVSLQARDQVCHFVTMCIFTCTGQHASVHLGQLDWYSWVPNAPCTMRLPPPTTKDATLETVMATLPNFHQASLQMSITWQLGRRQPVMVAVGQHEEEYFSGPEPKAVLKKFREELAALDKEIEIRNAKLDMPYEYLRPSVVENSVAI
Briefly: 15-LOX-1 activity assay, UV-absorbance change for linoleic acid conversion. Type of test: biochemical. The arrangement: His-tag (N); made in house; host or cells: E. coli BL21(DE3). The following applies: for IC50: 10 min pre-incubation at RT, 25 µM linoleic acid, absorbance 234 nm; for Mode of inhibition (Lineweaver–Burk plots): Km constant, Vmax decreases with inhibitor concentration. An excerpt: In brief, an alkyne‐alcohol was linked to propargyl halide (Cl or Br) using a CuI‐catalyzed Sonogashira cross‐coupling reaction followed by biotinylation of the alcohol using EDCI and HOBt as reagents to provide the desired biotinylated bis‐alkyne probes. The biotinylated bis‐alkynes were subjected to 15‐LOX‐1 binding studies using a 15‐LOX‐1 activity assay based on the UV‐absorbance change for linoleic acid conversion (Figure 1 a). […] Next, we evaluated the effect of the extension of the terminal ethyl substitution of inhibitor 1. […]
empty plasmid was proceed with the same procedure, which lysate was used as the negative control (referred as BL21 control later) in 15-LOX-1 recombinant enzyme inhibition studies.
1.3. Purification of recombinant human 15-LOX-1
The 15-LOX-1 with N-terminal his-tag was produced as described above. After removing the cell debris, the supernatant containing 15-LOX-1 was loaded on a Ni-NTA column (Qiagen, Hilden, Germany) pre-equilibrated with LOX lysis buffer. The column was washed twice with 30 column volume of LOX lysis buffer, and once with 30 column volume of wash buffer (25 mM HEPES, 300 mM NaCl, 25 mM Imidazole, pH 8.0). Later, the 15-LOX-1 was eluted twice with 2 column volume of elution buffer (25 mM HEPES, 300 mM NaCl, 250 mM Imidazole, pH 8.0), followed by desalting with a PD-10 column (Sigma-Aldrich) with LOX storage buffer (25 mM HEPES, 20% Glycerol, pH 7.5). The desalted 15-LOX-1 was further purified and concentrated with Vivaspin Turbo 15 (30.000 MWCO). The protein concentration was determined by Nanodrop spectrophotometry. The 100 μl aliquots of 15-LOX-1 were stored at -20 for further experiments.
15-LOX-1 recombinant enzyme inhibition assay
The 15-LOX-1 inhibition assay has been detailed previously. Briefly, the conversion of linoleic acid to hydroperoxy-(9Z,11E)-octadecadienoic acid (λmax of 234 nm) was used to determine the activity of the 15-LOX-1 enzyme. The conversion rate was the slope of UV-absorbance at 234 nm overtime at the […]
To determine the IC50 of probes, the cell lysate was pre-diluted in LOX assay buffer at a ratio of 1:160. The inhibition assay was done in an F-bottom UV-STAR 96-well plate, in which 50 µl of the diluted enzyme was incubated with 140 µl of a probe diluted in LOX assay buffer for 10 min at room temperature (RT). Later 10 µl of 500 µM linoleic acid dissolved in ethanol was added to the plate to reach a final concentration of 25 µM. The UV-absorbance at 234 nm was determined by a BioTek Synergy H1 plate reader (BioTek, Winooski, VT, USA) . The slope of the 15-LOX-1 sample untreated with the probe was set as 100%, while the slope of the BL21 control sample was set as 0%.
For the determination of enzyme kinetics, a series concentration of linoleic acid was used. Fifty µl of pre-diluted 15-LOX-1 enzyme was incubated with 140 µl of probe solution at a fixed concentration for 10 min at RT. Subsequently, 10 µl of a series concentration of linoleic acid was added to a final concentration ranging from 10 µM to 100 µM. The conversion rate was calculated as the same as […]
described in the IC50 determination assay. Michaelis-Menten plots, Lineweaver-Burk plots, Km, and Vmax, are generated using GraphPad Prism 8.3.0. […]

Test [2] addresses T1, 15-LOX-1. Briefly: Kitz-Wilson kinetic analysis of 15-LOX-1 inactivation. Format: biochemical. The arrangement: His-tag (N); made in house; host or cells: E. coli BL21(DE3). To be noted: for Ki: read-out: K i (equilibrium binding constant). On the procedure: Subsequently, Kitz‐Wilson analysis was performed to distinguish the equilibrium binding constant (K i) from the rate of covalent inactivation (k i). The different bis‐alkynes provided remarkably constant k i’s that varied by a factor 3 or less, whereas the K i’s varied by a factor 200 (Table 1). […] Improved non‐covalent binding is an important characteristic for activity‐based labeling because it implies improved specific recognition properties to the target of interest. Therefore, inhibitor 3 has been used for further development of a probe for activity‐based labeling of lipoxygenase activity with 15‐LOX‐1 as a reference enzyme. For convenient discussion, we named inhibitor 3, “Labelox B”. […]
described in the IC50 determination assay. Michaelis-Menten plots, Lineweaver-Burk plots, Km, and Vmax, are generated using GraphPad Prism 8.3.0.
1.5. Kits-Wilson kinetic analysis
The probes inhibit the 15-LOX-1 enzyme with a two-step reaction. First, a probe binds to an enzyme to get a reversible complex, E*I. The dissociation constant of inhibitor (Ki) is from the formation of E*I. Then, the probe forms a covalent bond with the enzyme, which generates an irreversible complex, E-I. The inactivation rate constant (ki) is to describe the rate of E-I generation. To determine these inactivation parameters, Kitz-Wilson analysis was employed. The procedure has been detailed previously

As usually defined, the IC50 is the midpoint of a concentration-inhibition curve. For `CCC#CCC#CCCOC(=O)CCCC[C@@H]1SC[C@@H]2NC(=O)N[C@@H]21` [Probe 8], in test [1], the IC50 is above 100 µM and the “Mode of inhibition (Lineweaver–Burk plots)” value (“Mode of inhibition” below) is recorded as “non‐competitive LOX inhibition”. Moreover, the “LOX inhibitory potency (words)” value in test [1] (structure-activity discussion in text, listed as 8) is “did not improve the potency”.
For the compound `C#CCOC(=O)CCCC[C@@H]1SCC2NC(=O)NC21` (some centres unmarked) [Probe 9], the half-inhibitory concentration (IC50) in test [1] was above 100 µM.
`CCCCCC#CCC#CCCCOC(=O)CCCC[C@@H]1SC[C@@H]2NC(=O)N[C@@H]21` [Probe 7]: in test [1], the IC50 is above 100 µM and the “Mode of inhibition” value was “non‐competitive LOX inhibition”. Also, the “LOX inhibitory potency (words)” value in test [1] (structure-activity discussion in text, listed as 7) is listed as “regain in potency”.
For `CCC#CCC#CCOC(=O)CCCC[C@@H]1SCC2NC(=O)NC21` (some centres unmarked) [Probe 1], in test [2], the “k i (rate of covalent inactivation)” value is 0.0136 ± 0.0061 min⁻¹ and the Ki is 116 ± 19.5 µM. In addition, in test [1], the IC50 was 38.2 µM and the “Mode of inhibition” value is reported as “non‐competitive LOX inhibition”.
For `CCC#CCC#CC(C)OC(=O)CCCC[C@@H]1SCC2NC(=O)NC21` (some centres unmarked) [Probe 2], in test [1], the concentration for half-maximal inhibition (IC50) was above 100 µM. Besides, the “LOX inhibitory potency (words)” value in test [1] (structure-activity discussion) is “potency was lost”.
As for `CCC#CCC#CCCOC(=O)CCCC[C@@H]1SC[C@@H]2NC(=O)N[C@@H]21` [Probe 4], in test [2], the “k i (rate of covalent inactivation)” value turned out to be 0.0093 ± 0.0031 min⁻¹ and the Ki was 16.6 ± 3.29 µM. In test [1], the half-maximal inhibitory concentration (IC50) came out at 11.1 µM. Also, the “LOX inhibitory potency (words)” value in test [1] (structure-activity discussion in text, listed as 4) is “loss of LOX inhibitory potency”.
With `CCC#CCC#CCCCOC(=O)CCCC[C@@H]1SC[C@@H]2NC(=O)N[C@@H]21` [Probe 5], in test [2], the “k i (rate of covalent inactivation)” value was determined as 0.0066 ± 0.0047 min⁻¹ and the Ki is 38.7 ± 6.33 µM. For the same compound, the half-maximal inhibitory concentration (IC50) in test [1] turned out to be 19.8 µM. In addition, in test [1] (structure-activity discussion), the “LOX inhibitory potency (words)” value was “loss of LOX inhibitory potency”.
Turning to `CCCC#CCOC(=O)CCCC[C@@H]1SCC2NC(=O)NC21` (some centres unmarked) [Probe 10], the IC50 in test [1] is above 100 µM.
On to `CCCCCC#CCC#CCCCOC(=O)CCCC[C@@H]1SC[C@@H]2NC(=O)N[C@@H]21` [Probe 6], for which, in test [1] (structure-activity discussion in text, listed as 6), the “LOX inhibitory potency (words)” value is listed as “did not improve the potency”.
